From patent US20170057910A1, “ANTITUMOR NAPHTHALENYL BENZAMIDE DERIVATIVES” (THE CLEVELAND CLINIC FOUNDATION, priority 2015, published 2017)
Entries after “also recorded” stand apart in the source; their conditions may differ.

How the values were obtained:
5TGM1-luc cells = test: Immunocompetent systemic mouse myeloma model (5TGM1-luc); format: in vivo; conditions: for anti-MM activity in vivo (imaging, time to death or euthanasia): albumin-based solutions, CCF642 IV then IP 1-12 mg/kg, CCF1172 IP three times a week 22 then 44 mg/kg; for adverse events by clinical observations and weekly weight measurements: three times a week clinical observations, increasing doses
Experimental: C57BL/KaLwRij mice were injected with 4×10^6 5 TGM1-luc cells per mouse via the tail vein. The next day, treatments were started. Compounds were diluted from DMSO stock into aqueous bovine serum albumin (Sigma, cat. # A7030) solution, supplemented, after compound addition, with NaCl to a final NaCl concentration of 150 mM. In this pilot experiment we aimed to evaluate general tolerance and activity using increasing doses. CCF642 was given in 10% BSA IV twice a week for the first three weeks followed by IP three times a week. IV doses started with 1 mg/kg (3% DMSO) and increased by 1 mg/kg per week (6% DMSO in the second and 10% DMSO in the third week). IP doses started with 6 mg/kg in week 4 and from week 5 onwards used 12 mg/kg (10% DMSO in both). CCF1172 (obtained from SPECS) was given IP three times a week, 22 mg/kg in the first two weeks, then 44 mg/kg (10% BSA, 10% DMSO).

MM1.S-luc = test: Three organ system sandwich assay, MM luciferase activity; format: cell-based
Excerpt: (§1) FIG. 1A, FIG. 1B, and FIG. 1C provide a scheme showing a sandwich three organ system assay, structures of lead compounds, and a graph of cell viability. Development of the three organ system sandwich assay yields structurally distinct promising anti-myeloma compounds. (a) To address the objective of identifying new clinically translatable treatments for the incurable cancer multiple myeloma (MM) that disrupt critical programs for this malignancy while sparing normal bone marrow, the inventors submitted hits from a mechanistically unbiased primary anti-MM screen to tests that modeled key components of the in vivo situation, initially separately, then in one multi-layered sandwich assay, followed by assessment of anti-MM activity in a panel of genetically heterogeneous MM cell lines.
(§2) Sandwich assay: HS-5 bone marrow stromal cells which secrete hematopoietic growth factors including multiple myeloma (MM) supporting IL-6 are grown to confluence on Transwell™ inserts before firefly luciferase expressing MM1.S cells are added and incubated overnight. […] Three to four days later MM luciferase activity is measured and viability of NL BM, constantly drug exposed for maximal stringency, is assessed by trypan blue exclusion using Vicell™ flow.

lymphoma cell lines = test: Activity in lymphoma cell lines; format: cell-based; conditions: 6 of 7 lymphoma cell lines
Excerpt: Cell lines: Multiple myeloma cell lines MM1.S, MM1.R, NCI-H929 were obtained from ATCC. MM cell lines KMS-12-PE and KMS-12-BM were from the JCRB, JJN-3 from DSMZ, and 5TGM1-luc cells were from Dr. Yoneda at the University of Texas Health Science at San Antonio. HRMM.09 cells were generated in the inventor's lab from a patient who developed refractory myeloma after treatment with steroids, IMiD, proteasome inhibitors, DNA alkylators, and anthracyclines. MM1.S-luc and HRMM.09-luc were generated in the inventor's laboratory by transduction with Cignal™ firefly luciferase control lentivirus obtained from Qiagen™ Lymphoma cells were generated by Mitchell Smith. All MM and lymphoma cells were grown in RPMI 1640 (NaCl 103.45 mM, NaCO3 23.81 mM, Na2HPO4 5.63 mM, KCl 5.33 mM, Ca(NO3)2 4H2O 0.424 mM, MgSO4 0.407 mM, pH around 7.2), supplemented with 10% fetal bovine serum, penicillin G (50 units ml^−1), and streptomycin (50 μM ml^−1). HS-5 cells were grown in appropriate cell culture media. Normal bone marrow cells were obtained from discarded bags of bone marrow grafts from healthy donors and either kept in RPMI with 25% (v/v) HS-5 supernatant for up to 14 days for isolated cytotoxicity assays or frozen and thawed for the sandwich assay. All cells were cultured at 37° C., 5% CO2 in humidified air. […]

MM cell lines = test: Anti-MM activity in a panel of genetically heterogeneous MM cell lines; format: cell-based
Excerpt: Cell lines: Multiple myeloma cell lines MM1.S, MM1.R, NCI-H929 were obtained from ATCC. MM cell lines KMS-12-PE and KMS-12-BM were from the JCRB, JJN-3 from DSMZ, and 5TGM1-luc cells were from Dr. Yoneda at the University of Texas Health Science at San Antonio. HRMM.09 cells were generated in the inventor's lab from a patient who developed refractory myeloma after treatment with steroids, IMiD, proteasome inhibitors, DNA alkylators, and anthracyclines. MM1.S-luc and HRMM.09-luc were generated in the inventor's laboratory by transduction with Cignal™ firefly luciferase control lentivirus obtained from Qiagen™ Lymphoma cells were generated by Mitchell Smith. All MM and lymphoma cells were grown in RPMI 1640 (NaCl 103.45 mM, NaCO3 23.81 mM, Na2HPO4 5.63 mM, KCl 5.33 mM, Ca(NO3)2 4H2O 0.424 mM, MgSO4 0.407 mM, pH around 7.2), supplemented with 10% fetal bovine serum, penicillin G (50 units ml^−1), and streptomycin (50 μM ml^−1). HS-5 cells were grown in appropriate cell culture media. Normal bone marrow cells were obtained from discarded bags of bone marrow grafts from healthy donors and either kept in RPMI with 25% (v/v) HS-5 supernatant for up to 14 days for isolated cytotoxicity assays or frozen and thawed for the sandwich assay. All cells were cultured at 37° C., 5% CO2 in humidified air.
Taking a mechanistically unbiased approach to drug discovery the inventors developed a sandwich assay that selected anti-MM compounds from a primary ATP-based 30,000 small molecule screen for lack of toxicity on normal bone marrow, stability towards liver enzymes, and activity in the context of cell barriers, bone marrow stromal support, and short, kidney-clearance-like exposure. CCF1172 emerged as one of three promising compounds and had sub-μM IC50 potency in all 8 MM cells tested and 6 of 7 lymphoma cell lines.

[1] = Three organ system sandwich assay, normal bone marrow viability by trypan blue exclusion; format: cell-based; conditions: human, read-out: reduction of viable NLBM cells
Excerpt: as §1, §2

refractory myeloma = conditions: cited from earlier work

Compound | anti-MM activity in vivo (imaging, time to death or euthanasia) (5TGM1-luc cells) | adverse events by clinical observations and weekly weight measurements (5TGM1-luc cells) | effectiveness in the sandwich assay compared with CCF642 and CCF1118 (MM1.S-luc) | reduction of MM1.S-luc luminescence (MM1.S-luc; 15 μM) | IC50 potency in lymphoma cell lines (lymphoma cell lines) | potency in the MM cell line panel compared with CCF642 and CCF1118 (MM cell lines; MM cell line panel) | IC50 potency in MM cells (MM cell lines; all 8 MM cells tested) | activity against genetically heterogenous MM cell lines (MM cell lines; seven MM cell lines) | cytotoxicity at 15 μM [1] | overall response rate (refractory myeloma; single agent, refractory myeloma patients) | survival relative to expected survival (refractory myeloma; two phase studies, patients with refractory myeloma)
COc1ccc(N2C(=O)/C(=C\c3ccc([N+](=O)[O-])s3)SC2=S)cc1 [CCF642, reference compound] | had anti-MM activity | No obvious adverse events | – | – | – | – | – | – | – | – | –
O=C(Nc1cccc2ccccc12)c1cc(Cl)ccc1O [CCF1172] | demonstrated in vivo activity; also recorded: had anti-MM activity | No obvious adverse events | equally effective | 70-80% | sub-μM | less potent | sub-μM | uniform activity | < 30% | – | –
Daratumumab: the first anti-CD38 antibody for use in myeloma | – | – | – | – | – | – | – | – | – | about 30% | over twice of expected survival
